For data set [1] the following is noted: not told.
Procedure: (§1) To investigate the influence of TFA^− and Cl^− as counterions on the membrane permeation of synthetic peptides, a liposomal fluorescence assay was performed as previously described [37, 38]. The assay relies on the change in fluorescence of HPTS correlating to the liposomal internal pH change altered by permeation of an acidic or basic compound across the phospholipid bilayer. […] We first evaluated the impact of counterions on the permeation kinetics of the CPPs. Fitted biexponential curves and calculated log Permapp values are shown if the obtained normalized RMSE was <0.10. […] Control experiments with TFA and HCl are also shown for reference. […] To complement the CPP study, we also investigated peptides AT 1–4 in the permeation assay.
(§2) To investigate the influence of the counterions on the membrane permeability of peptides, a liposomal fluorescence assay was performed using a previously described method adapted to a plate reader [37, 38].
Data set [2] is described as follows: direct pH measurement of aqueous peptide salt solutions. The format is physicochemical. The settings on record: before exchange (TFA salt), about 2–2.4 mg/mL peptide salt. From the text:
Direct pH measurements of aqueous solutions of peptides present as TFA, as well as Cl salts, were acidic in a pH range below 3 (exact values can be found in the Supporting Information). […] Strong counterions as Cl^− and TFA^− may shield the positive charges and hydrogen bond donors, facilitating permeation as a net neutral complex. The complex then dissociates in the unbuffered internal liposomal phase, into a weak base (peptide) and a strong acid (HCl or TFA), resulting in the release of protons leading to acidification and a decrease in fluorescence. This assumption would align with the concept of hydrophobic ion pairing, described to enhance the membrane permeability of charged molecules in drug delivery. Our findings confirm results of previous studies that counterions cannot be neglected and the salt form might affect the membrane permeation behavior of peptides, among other things. Given that counterions are often unreported in the literature, we herein emphasize the need for explicit consideration and clarification in peptide-based permeation assays and further functional studies.
Table S8: pH measurements of AT1-4 peptide salt in aq. solution after exchange and lyophilization
Before Conc. peptide 2.38 2.38

Data set [3] is described as follows: peptide integrity during counterion exchange with aq. HCl, HPLC-UV. In kind it is physicochemical. On the procedure:
As degradation issues in aqueous acidic solutions have been reported previously, the integrity of AT 1 during counterion exchange with the different concentrations of HCl was measured with HPLC-UV. […] Similar results could be found for all other peptides under investigation (Supplementary Materials Section S3). […] Nevertheless, the stability of the peptide as well as the counterion exchange efficacy may vary, depending on the peptide sequence. Therefore, the TFA^− content as well as the purity should always be confirmed after counterion exchange.
For the counterion exchange of TFA^− with Cl^−, the peptide salt was dissolved in a diluted aqueous HCl solution at a concentration of 1 mg/ml. […] To evaluate the influence of the peptide sequence, counterion exchange was also performed for AT 2, AT 3, and AT 4 with the optimally determined salt concentration of 10 mM. […] For all peptide samples, the content of counterions was measured by FT-IR, ^19F-NMR, and HPLC-ELSD before the exchange as well as after each lyophilization cycle (Ex 0, Ex 1, Ex 2, and Ex 3). […] HPLC-ELSD samples containing 0.75 mg/mL peptide salt in H2O were measured in triplicate with an injection volume of 5 and 20 µL. The purity of the samples was monitored during the counterion exchange with a 0.25 mg/mL peptide salt solution according to the purity method described below. […]

Data set [4] in a line: counterion (TFA−, Cl−, Na+) content of peptide salt by HPLC-ELSD during HCl exchange. In kind it is physicochemical. On the procedure: The TFA^− content in samples was quantified using three analytical methods, namely FT-IR, ^19F-NMR, and HPLC-ELSD, adapted from previous publications. The methods are described in detail in the Supplementary Materials Section S2. In short, FT-IR spectra were recorded in aqueous solution at a wavelength from 4000 cm^−1 to 600 cm^−1 (PerkinElmer Inc., Waltham, MA, USA). The absorbance maxima in the TFA^− absorbance range of 1210 to 1190 cm^−1 were determined using Python (3.10.10, https://docs.python.org/3/reference (accessed 22 April 2024)). The ^19F-NMR (Bruker Avance III 400 MHz NMR spectrometer, Bremen, Germany) measurements were performed in 10% deuterium oxide (D2O; >99.9 atom% D, Apollo Scientific, Bredbury, United Kingdom) in H2O (nanopure water, in-house water purification system ELGA Purelab, Villmergen, Switzerland) and the signal areas were determined via auto-integration. The HPLC-ELSD (VWR ELITE Lachrome Series, Dietikon, Switzerland) method was used under isocratic conditions with a mobile phase consisting of 40% 20 mM ammonium formate (≥99%, Sigma Aldrich, Buchs, Switzerland) in H2O (pH 4.0) and 60% acetonitrile (ACN; HPLC gradient grade, ≥99.9%, Sigma Aldrich, Buchs, Switzerland). Separation was achieved on an Acclaim Trinity P1 column (3 mm × 100 mm, Thermo Fisher Scientific, Sunnyvale, CA, USA) allowing for the simultaneous detection of TFA^−, Cl^−, and Na^+. Retention times were determined by single injection of analytes and quantification performed via peak area. All analytical methods were validated according to the ICH guidelines. For each analysis method, calibrators with concentrations in the corresponding quantitative range for TFA^− (additionally, Na^+ and Cl^− for HPLC-ELSD) were prepared and aliquoted for each validation day (4 days for FT-IR and ^19F-NMR, 8 days for HPLC-ELSD). Quality control (QC) samples (QC low, med, and high) were prepared independently. All aliquots were stored at 5 °C. Over a period of 7 (FT-IR and ^19F-NMR) or 21 days (HPLC-ELSD), daily regression curves were determined using the generalized least squares regression model. For the ^19F-NMR and FT-IR method, a linear model was used, and for the HPLC-ELSD method a polynomial model. Weightings of x, 1/x, and 1/x^2 were considered for the calibration curves. The accuracy was determined by comparing the established concentration of the QC sample concentration and the theoretical concentration. Bias and intra- and inter-day precision (RSDR and RSDT) were calculated according to Peters et al.. […] The limit of detection (LoD) and limit of quantification (LoQ) for the FT-IR and ^19F-NMR methods were calculated according following ICH guidelines based on the standard deviation of the response and slope. As a quadratic regression curve was determined for the HPLC-ELSD method, LoD and LoQ were determined using the signal-to-noise approach. To assess the stability of the calibration curve, the concentration of the QCs for each day was recalculated with the calibration curve established on the first day and the bias was determined by comparison with the theoretical value calculated.
For the counterion exchange of TFA^− with Cl^−, the peptide salt was dissolved in a diluted aqueous HCl solution at a concentration of 1 mg/ml. […] To evaluate the influence of the peptide sequence, counterion exchange was also performed for AT 2, AT 3, and AT 4 with the optimally determined salt concentration of 10 mM. […]

For data set [5] the following is noted: at the concentrations used in the liposomal assay; cited from earlier work.
The conditions of data set [6]: cited from earlier work.
A short description of data set [7]: liposomal fluorescence assay (HPTS) for passive membrane permeation.
Procedure: as §1, §2

Turning to `CC[C@H](C)[C@H](NC(=O)[C@H](CCCCN)NC(=O)[C@@H](NC(=O)[C@H](CCC(N)=O)NC(=O)[C@@H](N)CCCNC(=N)N)[C@@H](C)CC)C(=O)N[C@@H](Cc1c[nH]c2ccccc12)C(=O)N[C@@H](Cc1ccccc1)C(=O)N[C@@H](CCC(N)=O)C(=O)N[C@@H](CC(N)=O)C(=O)N[C@@H](CCCNC(=N)N)C(=O)N[C@@H](CCCNC(=N)N)C(=O)N[C@@H](CCSC)C(=O)N[C@@H](CCCCN)C(=O)N[C@@H](Cc1c[nH]c2ccccc12)C(=O)N[C@@H](CCCCN)C(=O)N[C@@H](CCCCN)C(N)=O` [AntP, H2N-RQIKIWFQNRRMKWKK-CONH2], in data set [1], the “influence of type of counterion on passive permeation” value was “unaffected by the type of counterion” and the “permeation kinetics / fluorescence change (qualitative)” value is given as “biexponential kinetics were observed”.
Consider “H2N-DRVYIHPF-COOH (H-DRVYIHPF-OH) [AT 2, angiotensin peptide synthesized by SPPS]”, for which the “pH of peptide salt in aq. solution” value in data set [2] is listed as 2.63.
For “H2N-DRVYIHPFHL-COOH (H-DRVYIHPFHL-OH) [AT 1, angiotensin model peptide synthesized by SPPS]”, the “degradation products during counterion exchange” value in data set [3] (HCl up to 100 mM) is “No degradation products were observed”. Moreover, the “purity during counterion exchange (stability in aq. HCl)” value in data set [3] (all HCl concentrations (0–100 mM), over three exchange cycles) was “above 96%”. Besides, in data set [4] (10 mM HCl, single cycle), the “Cl− content relative to expected value based on stoichiometric exchange” value was found to be 99.0%. Moreover, the “TFA− content of peptide salt” value in data set [4] (after one exchange cycle with 10 and 100 mM HCl, below LoQ of all techniques) was “below 1 % (w/w)”; in data set [4] (after purification, before exchange, HPLC-ELSD), 0.333 ± 0.008 mg TFA^− per mg peptide salt; in data set [4] (control 0 mM HCl, after three exchange cycles), 0.215 ± 0.023 mg TFA^− per mg peptide salt. Moreover, the “Cl− content of peptide salt” value in data set [4] (exchanged with 10 mM HCl, after a single cycle) came out at 0.098 mg per 1 mg peptide salt. The “pH of peptide salt in aq. solution” value in data set [2] is recorded as 2.59.
Regarding H2N-RVYIHPF-COOH [AT 3], the “pH of peptide salt in aq. solution” value in data set [2] amounted to 2.63.
The same measure, in the same setting: under H2N-VYIHPF-COOH [AT 4] stands 2.39.
Regarding H-KETWWETWWTEWSQPKKKRKV-OH [Pep1], in data set [1], the “influence of type of counterion on passive permeation” value is given as “influence the amplitude of the permeation curve, although the overall log Permapp remained similar” and the “permeation kinetics / fluorescence change (qualitative)” value is recorded as “biexponential kinetics were observed”.
In the case of “H-LLIILRRRIRKQAHAHSK-OH [pVEC, H2N-LLIILRRRIRKQAHAHSK-COOH]”, the POPC membrane disruption result in data set [5] is “no POPC membrane disruption was observed”. The hemolytic activity entry in data set [6] is “general hemolytic activity is described”. The “passive membrane permeation (qualitative)” value in data set [7] (Cl salt) is “did not detect permeation”; in data set [7] (TFA salt), “showed passive permeation”. In addition, the “Log Permapp” value in data set [7] (TFA salt, 50 µM peptide solution added to liposomes, outer phase pH 6.0, 28.5 °C, ± standard error of the fit, n = 3) was -6.913 ± 0.048 cm/s.

These data come from paper PMC12389442, “Towards a Consensus for the Analysis and Exchange of TFA as a Counterion in Synthetic Peptides and Its Influence on Membrane Permeation” (Pharmaceuticals, 2025).
